Laboratory results reported in patent US20240165165A1, “PHARMACEUTICAL COMPOSITIONS AND THEIR METHODS OF USE” (The Trustees of Indiana University, priority 2021, published 2024).

How the values were obtained:
[1] = test system: 4T1.2 mammary tumor cells; assay: EdU proliferation assay; format: cell-based, mouse
Protocol: EdU assay. Approximately 2,000 cells were seeded in 96-well plates on day 1. CM was added on day 2 and cellular proliferation was examined using a fluorescence-based cell proliferation kit (CLICK-IT™ EDU ALEXA FLUOR™ 488 Imaging Kit; Thermo-Fisher, Waltham, MA, USA) on day 4. After fluorescent labeling, the number of fluorescently labeled cells was counted and the ratio to the total number of cells was determined.
In vitro assays. Cellular viability was examined using an MTT assay (Invitrogen, Carlsbad, CA, USA) with the procedure previously described, as well as an EdU assay with a fluorescence-based cell proliferation kit (Thermo-Fisher, Waltham, MA, USA). The recombinant proteins employed included Filamin A, Pkm, Pdia3, Tpm4, Anxa2, Eef1a1, Cts1, Nme2, Dcn, Calr, Aldoa, Calm1, Tpm3, Ppib, Myh9, Ywhae, Hspa5, Hsp90aa1 (MBS962910, MBS8249600, MBS2010131, MBS145304, MBS2009095, MBS2033168, MBS143355, MBS145412, MBS2557309, MBS2009125, MBS8248528, MBS2018713, MBS144696, MBS2009092, MBS717396, MBS143242, MBS806904, MBS142709; MyBioSource, San Diego, CA, USA), Actin Gamma 1, Actn4, Hspa8, Vimentin (H00000071-P01, H00000081-P01, NBP1-30278, NBP2-35139; Novus, Littleton, CO, USA), and Hsp90ab1 (OPCA05157; Aviva system biology, San Diego, CA, USA). […]

[2] = test system: 4T1.2 mammary tumor cells; assay: MTT viability assay; format: cell-based, mouse
Excerpt: (§1) In vitro assays. Cellular viability was examined using an MTT assay (Invitrogen, Carlsbad, CA, USA) with the procedure previously described, as well as an EdU assay with a fluorescence-based cell proliferation kit (Thermo-Fisher, Waltham, MA, USA). The recombinant proteins employed included Filamin A, Pkm, Pdia3, Tpm4, Anxa2, Eef1a1, Cts1, Nme2, Dcn, Calr, Aldoa, Calm1, Tpm3, Ppib, Myh9, Ywhae, Hspa5, Hsp90aa1 (MBS962910, MBS8249600, MBS2010131, MBS145304, MBS2009095, MBS2033168, MBS143355, MBS145412, MBS2557309, MBS2009125, MBS8248528, MBS2018713, MBS144696, MBS2009092, MBS717396, MBS143242, MBS806904, MBS142709; MyBioSource, San Diego, CA, USA), Actin Gamma 1, Actn4, Hspa8, Vimentin (H00000071-P01, H00000081-P01, NBP1-30278, NBP2-35139; Novus, Littleton, CO, USA), and Hsp90ab1 (OPCA05157; Aviva system biology, San Diego, CA, USA). A TRANSWELL® chamber assay was conducted to detect invasive cellular motility, and a wound-healing scratch assay was utilized to evaluate 2-dimensional migratory behavior. The overexpression of Akt, Lrp5, β-catenin, Snail, Calr, and Ppib was conducted by transfecting plasmids (#10841, #115907, #31785, #31697, #51161, #36123; Addgene, Cambridge, MA, USA). […]

[3] = test system: 4T1.2 cells; assay: Western blot of proteins in treated tumor cells; format: cell-based, mouse; settings: for tumor-promoting genes (Lrp5, MMP9, Runx2, TGFβ, Snail) in 4T1.2 cells: Western blot
Protocol: (§2) Western blot analysis and protein array analysis. Western blot analysis was conducted using the procedure previously described. Antibodies against Lrp5, Runx2, Snail, TGFβ, sclerostin, Calr, p-eIF2α, eIF2α (Cell Signaling, Danvers, MA, USA), LIF, Trail (Novus Biologicals, Centennial, CO, USA), MMP9, NFATc1, cathepsin K (Santa Cruz Biotechnology, Dallas, TX, USA), p53, CXCL2, Ppib (Invitrogen, Carlsbad, CA, USA), Hsp90ab1 (Abcam, Cambridge, UK), and β-actin (Sigma, Saint Louis, MO, USA) were used. A proteome profiler mouse XL cytokine array kit (R&D Systems, Minneapolis, MN, USA) was also employed, and the expression of 111 cytokines and chemokines in MSC-derived CM was determined.

[4] = test system: 4T1.2 mammary tumor cells; assay: TRANSWELL invasion assay; format: cell-based, mouse
Excerpt: as §1

[5] = test system: 4T1.2 mammary tumor cells; assay: Scratch-based migration assay; format: cell-based, mouse
Protocol: Two-dimensional motility assay. A wound-healing scratch motility assay was performed to evaluate 2-dimensional cell motility. Approximately 4×10^5 cells were seeded in 12-well plates. After cell attachment, a plastic pipette tip was used to scratch a gap on the cell layer. Floating cells were removed, and CM was added. Images of the cell-free scratch zone were obtained via an inverted microscope at 0 h, and the areas newly occupied with cells were determined 24-48 h after scratching. The areas were quantified with IMAGE J (National Institutes of Health, Bethesda, MD, USA).
In vitro assays. Cellular viability was examined using an MTT assay (Invitrogen, Carlsbad, CA, USA) with the procedure previously described, as well as an EdU assay with a fluorescence-based cell proliferation kit (Thermo-Fisher, Waltham, MA, USA). […]

[6] = Estimation of the diffusion coefficient through the skull; format: physicochemical, mouse
Excerpt: Estimation of the diffusion coefficient through the skull. Suppose that the two aqueous reservoirs are separated by a skull and the solute (albumin) in the first reservoir with the volume V1 is transferred to the second reservoirs with the volume V2. When the volume of the skull is negligible, the change in the solute in the first reservoir is approximated, using the quasi-steady-state flux, N according to Eq. (1) and Eq. (2):
Where t=time, and c 1 (t) and c 2 (t)=concentrations in the first and second reservoirs, respectively, A=skull surface area, D=diffusion coefficient through the skull, and L=skull thickness. Since the decrease in the first reservoir is equivalent to the gain in the second reservoir, Eq. (3) is arrived at:
If the initial concentrations are c1(t=0)=c0 and c2 (t=0)=0, the concentration c1 is predicted as a function of time according to Eq. (4):
The diffusion coefficient of albumin in the skull was estimated as 3.30×10^−8 cm^2/s from the slope (0.7157) of the best-fit line of Eq. (4) in FIG. 36B. Of note, V1=265 μl, V2=65 μl, c0=10 μg/μ1, A=188 mm^2, and L=60 μm.

[7] = test system: phosphorylated Akt in MSCs; assay: Western blot of phosphorylated Akt; format: cell-based, mouse
Protocol: as §2

[8] = test system: EO771 cells in the inside of the skull; assay: Skull diffusion assay, MTT-based viability; format: cell-based, mouse; settings: agent in the outside of the skull
Protocol: (§3) Skull diffusion assay. The usage of human breast cancer tissues was approved by the Indiana University Institutional Review Board, and informed consent for research use was obtained from all patients. The experiment was performed following Indiana University's human research protection program policies. A breast cancer tissue (— 1 g; ER/PR+, HER2+), received from Simon Cancer Center Tissue Procurement Core, was manually fragmented with a scalpel into small pieces. Mouse skulls were isolated and rinsed with PBS. They were placed in a 24-well plate with the head top facing the well surface and tumor cells or breast cancer tissue fragments were grown. The well was filled with the control medium or osteocyte-derived CM. Fluphenazine (Sigma-Aldrich), a dopamine receptor antagonist that suppresses the growth of mammary tumor cells, was employed as a positive control to suppress tumor growth.

[9] = test system: human breast cancer fragments in the inside of the skull; assay: Skull diffusion assay, tissue fragments; format: cell-based; settings: agent in the outside of the skull
Protocol: as §3

[10] = test system: EO771 mammary tumor cells in the lung of C57BL/6 mice; assay: In vivo extravasation assay; set-up: species or system mouse; settings: co-injection into tail vein, 48 h
Protocol: To evaluate the effects of CMs for tumor invasion, the in vivo extravasation assay was conducted. C57BL/6 female mice (5 mice per group) received an injection of 50 μl of fluorescently labeled EO771 cells (1.0×10^6 cells) into the lateral tail veins. Fluorescently labeled EO771 cells were prepared by culturing them with a green fluorescent dye (#4705, Sartorius, Gottingen, Germany) for 20 min at 37° C. Cells were then centrifuged with 1000 rpm for 5 min for harvesting the pellet. The pellet was re-suspended in PBS (placebo group) or osteocyte-derived CM (A5 CM group). Mice will be sacrificed after 48 h for histologically identifying extravascular tumor cells in the lung.

[11] = test system: EO771 cells; assay: Western blot of proteins in treated tumor cells; format: cell-based, mouse
Protocol: Western blot analysis and mass spectrometry. Western blot analysis was conducted using known procedures. Antibodies were used against ANXA1, β-catenin, caspase 3, Lrp5, Lrp6, Runx2, Sclerostin, Snail, TGFβ, NFATc1, cathepsin K (Cell Signaling, Danvers, MA, USA), DMP1, ANXA6, CXCL5 (Abcam, Cambridge, MA, USA), M-CSF, MMP9, OPN, TPM4 (Santa Cruz, Dallas, TX, USA), WISP1 (R&D systems, Minneapolis, MN, USA), β-actin (Sigma, Saint Louis, MO, USA), LIMA1, Trail (Novus, Centennial, CO, USA), p53 and CXCL1 (Invitrogen, Carlsbad, California, USA), and DSP (ProteinTech, Rosemont, IL, USA). The expression levels of Sclerostin and Lrp5 in CM were detected by ELISA (My BioSource, San Diego, CA, USA). Proteins from A5 osteocyte CM, Y4 osteocyte CM, and osteoclast control CM (RAW264.7 cells) were analyzed by the HF Hybrid Quadrupole Orbitrap mass spectrometry. Among 549 identified proteins, 49 proteins presented higher expression levels in A5 CM than Y4 CM and control CM. […]
Western blot analysis and protein array analysis. […] A proteome profiler mouse XL cytokine array kit (R&D Systems, Minneapolis, MN, USA) was also employed, and the expression of 111 cytokines and chemokines in MSC-derived CM was determined. […]

## Ppib: recombinant peptidylprolyl isomerase B
[1]
  EdU-based proliferation of 4T1.2 cells: significantly inhibited
[2]
  MTT-based viability of 4T1.2 cells: Significant reduction
[3]
  phosphorylation level of eIF2α in 4T1.2 cells: elevated
  tumor-promoting genes (Lrp5, MMP9, Runx2, TGFβ, Snail) in 4T1.2 cells: suppressed
[4]
  TRANSWELL invasion of 4T1.2 cells: significantly inhibited

## Hsp90aa1: Hsp90aa1 recombinant protein
[3]
  tumor-promoting genes (Lrp5, MMP9, Runx2, TGFβ, Snail) in 4T1.2 cells: did not alter

## Hsp90ab1: recombinant heat shock protein 90 alpha family class B member 1
[2]
  MTT-based viability of 4T1.2 cells: Significant reduction
[3]
  tumor-promoting genes (Lrp5, MMP9, Runx2, TGFβ, Snail) in 4T1.2 cells: downregulated
[5]
  scratch-based migration of 4T1.2 cells: reduced

## albumin: bovine serum albumin, solute for skull diffusion
[6]
  diffusion coefficient across the skull relative to aqueous solution, fold smaller: approximately 20 fold
[6]; murine skull, estimated from slope of Eq. (4)
  diffusion coefficient across the skull: 3.30×10^−8 cm^2/s

## Oc1cc2c(cc1O)C(Cc1cccc3ccccc13)NCC2 (stereo not shown) [YS49]
[7]
  phosphorylated Akt in MSCs: elevated

## OCCN1CCN(CCCN2c3ccccc3Sc3ccc(C(F)(F)F)cc32)CC1 [Fluphenazine]
[8]
  viability of EO771 tumor cells in the inside of the skull: significantly decreased
[9]
  size of human breast cancer fragments in the inside of the skull: significantly shrunk

## COc1cccc(-c2cc(NCc3ccc4c(c3)OCO4)nc(N)n2)c1 [BML284]
[10]
  number of EO771 tumor cells in the lung: Reduction

## TGFβ
[11]
  tumor-promoting/tumorigenic proteins (Lrp5, MMP9, Runx2, TGFβ, Snail, IL1β etc.) in EO771 cells: increased
